PubChem BioAssay (NCI)
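Values below derive from 48-hour exposures of cells grown in 96-well plates, with endpoints linearly interpolated between the two concentrations bracketing the appropriate inhibition level. GI50: concentration for 50% inhibition of growth. TGI marks complete inhibition of growth.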

Assays:
Assay in all cases: inhibition of tumour cell growth, NCI panel, 48 h
SK-MEL-5 melanoma = system: SK-MEL-5 melanoma
COLO 205 colon = system: COLO 205 colon
LOX IMVI melanoma = system: LOX IMVI melanoma
OVCAR-5 ovarian = system: OVCAR-5 ovarian
SF-295 CNS = system: SF-295 CNS
NCI/ADR-RES ovarian = system: NCI/ADR-RES ovarian
CCRF-CEM leukemia = system: CCRF-CEM leukemia
SK-MEL-28 melanoma = system: SK-MEL-28 melanoma
MDA-MB-435 = system: MDA-MB-435
OVCAR-3 ovarian = system: OVCAR-3 ovarian

| SMILES | GI50 (SK-MEL-5 melanoma) [µM] | TGI (SK-MEL-5 melanoma) [µM] | GI50 (COLO 205 colon) [µM] | TGI (COLO 205 colon) [µM] | GI50 (LOX IMVI melanoma) [µM] | TGI (LOX IMVI melanoma) [µM] | GI50 (OVCAR-5 ovarian) [µM] | TGI (OVCAR-5 ovarian) [µM] | GI50 (SF-295 CNS) [µM] | TGI (SF-295 CNS) [µM] | GI50 (NCI/ADR-RES ovarian) [µM] | TGI (NCI/ADR-RES ovarian) [µM] | GI50 (CCRF-CEM leukemia) [µM] | TGI (CCRF-CEM leukemia) [µM] | GI50 (SK-MEL-28 melanoma) [µM] | TGI (SK-MEL-28 melanoma) [µM] | GI50 (MDA-MB-435) [µM] | TGI (MDA-MB-435) [µM] | GI50 (OVCAR-3 ovarian) [µM] | TGI (OVCAR-3 ovarian) [µM] |
| --- | --- | --- | --- | --- | --- | --- | --- | --- | --- | --- | --- | --- | --- | --- | --- | --- | --- | --- | --- | --- |
| O=C(NCCCO)c1cc(Cl)ccc1O | 1.94 | 4.33 | 1.95 | 5.85 | 2.5 | 11.5 | 4.4 | 19.9 | 1.36 | 6.01 | 9.31 | 27.9 | 0.728 | 17.3 | 4.45 | 17.3 | 2.68 | 12.1 | 1.6 | 9.11 |
| COc1ccc2ccccc2c1C1NC(=O)c2ccccc2N1 (centres undefined) |  | 6.31 |  |  |  | 65.2 |  | > 31.3 |  |  |  | 3.02 |  | > 28.3 |  | > 100 |  | 0.461 |  | 1.92 |
| COC(=O)c1cccn1C(=O)n1cccc1 |  | > 100 |  | > 100 |  | > 100 |  | > 100 |  | > 100 |  |  |  | > 100 |  | > 100 |  |  |  | > 100 |
| Oc1ccc2ccccc2c1N=Nc1ccsc1 |  | > 100 |  | > 100 |  | > 100 |  | > 100 |  | > 100 |  |  |  | > 100 |  | > 100 |  |  |  | > 100 |
| C[As](C)SCC(COC(=O)C(Cl)c1ccccc1)OC(=O)C(Cl)c1ccccc1 (centres undefined) | 0.305 | 1.12 | 1.43 |  |  |  | 6.69 | > 37.2 | 7.79 | 29.1 | 2.76 | 16.8 | 0.339 | 2.14 | 10.6 | 28.1 | 0.367 | 3.13 | 0.179 | 0.474 |
| Oc1ccc(C(c2ccc(O)cc2)c2ccc(O)cc2)cc1 |  | 30.6 |  | 20.8 |  | 38.4 |  |  |  | > 100 |  | 44.2 |  | 92.6 |  | 45 |  | 46.1 |  |  |
| COC(=O)c1cc(O)c2cc3c(cc2c1-c1cc(OC)c(OC)c(OC)c1)OCO3 | 0.891 | > 100 | 2.77 | > 100 | 1.67 | > 100 | 50.2 | > 100 | 0.536 | 5.03 | 0.462 | > 100 |  |  | 5.34 | > 100 | 0.277 | 1.12 | 0.325 | 1.15 |
| Nc1c(C(=O)Nc2cccc(F)c2)sc2nc3c(cc12)C(=O)CCC3 | 0.391 | > 100 | 0.273 | 0.751 | 0.772 | > 100 | 2.24 | > 100 | 0.245 | > 80 | 0.487 | > 100 | 0.341 | > 100 | 20.5 | > 100 |  |  | 0.351 | > 100 |
| CCOC(=O)N1CCC(=O)C(CNC23CC4CC(CC(C4)C2)C3)C1 (centres undefined) |  | > 100 |  | > 100 |  | 41.5 |  | > 100 |  | > 100 |  |  |  | 35.9 |  | 32.1 |  |  |  |  |
| CC(=O)OC(C)(C)/C(C)=C/C(=O)O[C@H]1C(=O)O[C@@H]2C[C@H]3[C@H](C)C(=O)C(O[C@@H]4O[C@H](CO)[C@@H](O)[C@H](O)[C@H]4O)=C[C@]3(C)[C@H]3[C@@H](O)[C@H](O)[C@@]4(C(=O)O)OC[C@]32[C@@H]14 |  |  | > 100 | > 100 |  | > 100 | > 100 | > 100 |  |  | > 100 | > 100 | 43.8 | > 100 |  | > 100 | > 100 | > 100 | 25.9 | > 100 |
| O=c1ncc(F)cn1C1OC(CO)C(O)C1O (centres undefined) |  |  |  | > 37.9 |  | > 59.8 |  | > 100 |  | > 100 |  |  |  | > 63.6 |  | > 46.4 |  |  |  | > 67.4 |
| COc1cc(C2SCC(=O)N2c2ncc(C)s2)cc(OC)c1OC (centres undefined) | 17.3 | > 50 | 17.5 | > 50 | 31.2 | > 50 | > 50 | > 50 | 9.23 | > 50 | 29 | > 50 |  |  | > 50 | > 50 | 2.91 | 24.9 | 14.3 | 44.8 |
| O=C(CCN1CCN(c2ccccc2)CC1)N1CCc2c([nH]c3ccccc23)C1c1cccnc1 (centres undefined) |  | 28.9 |  | 26.7 |  | 30.6 |  | 34.6 |  |  |  |  |  | 69.7 |  | 29.1 |  |  |  | 30.7 |
| CC(C)(C)c1cc(-n2c(-c3ccc(Cl)cc3)nc3cc(C(=O)Nc4ccc(Cl)cc4)ccc32)n[nH]1 |  |  | 4.71 | > 100 |  |  | > 100 | > 100 | 2.93 | > 100 | 4.17 | > 100 |  |  | 64.2 | > 100 |  |  | 3.63 | 23.2 |
| COC(=O)C(C(=O)C(=O)Nc1ccc([N+](=O)[O-])cc1[N+](=O)[O-])c1nc2ccc(Cl)cc2[nH]c1=O (centres undefined) |  | > 100 |  | > 100 |  | > 100 |  | > 100 |  | > 100 |  |  |  | > 100 |  | > 100 |  |  |  | > 100 |
| O=c1[nH]c(=S)[nH]c2c1CN(CCCN1CCOCC1)CN2 |  | > 100 |  | 38.6 |  | 62.4 |  | > 100 |  | > 100 |  | > 100 |  |  |  | > 100 |  | 69.6 |  | > 100 |
| Nc1nnnn1CCO |  | > 100 |  | > 100 |  | > 100 |  | > 100 |  | > 100 |  | > 100 |  |  |  | > 100 |  | > 100 |  | > 100 |
| [N-]=[N+]=NCCCCCC(=O)OC(C(=O)c1ccccc1)c1cccc(OCC(=O)NCCOCCOCCNC(=O)CCCC[C@@H]2SC[C@@H]3NC(=O)N[C@@H]32)c1 (some centres undefined) | > 100 | > 100 | > 100 | > 100 | 18.5 | 44.5 | > 100 | > 100 | > 100 | > 100 | > 100 | > 100 | 52.2 | > 100 | > 100 | > 100 | 50.6 | > 100 |  |  |
